From PubChem BioAssay (NCI)
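Cultured in 96-well plates, cells were exposed to test compound for 48 hours across five concentrations. TGI: concentration producing complete growth inhibition.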

Experiments:
Experiment in all cases: NCI tumour cell line growth inhibition, 48 h
UACC-62 melanoma = system: UACC-62 melanoma
HL-60(TB) leukemia = system: HL-60(TB) leukemia
SK-MEL-28 melanoma = system: SK-MEL-28 melanoma
TK-10 renal = system: TK-10 renal
DLD-1 colon = system: DLD-1 colon
MALME-3M melanoma = system: MALME-3M melanoma
M14 melanoma = system: M14 melanoma
OVCAR-5 ovarian = system: OVCAR-5 ovarian
SF-295 CNS = system: SF-295 CNS
SW-620 colon = system: SW-620 colon
OVCAR-8 ovarian = system: OVCAR-8 ovarian
K-562 leukemia = system: K-562 leukemia
NCI-H522 lung = system: NCI-H522 lung
OVCAR-3 ovarian = system: OVCAR-3 ovarian
OVCAR-4 ovarian = system: OVCAR-4 ovarian
HCC-2998 colon = system: HCC-2998 colon
SK-OV-3 ovarian = system: SK-OV-3 ovarian
LXFL 529 NSCLC = system: LXFL 529 NSCLC
IGROV1 ovarian = system: IGROV1 ovarian
NCI-H23 lung = system: NCI-H23 lung
RXF 393 renal = system: RXF 393 renal
KM20L2 colon = system: KM20L2 colon
UO-31 renal = system: UO-31 renal
786-0 renal = system: 786-0 renal
MOLT-4 leukemia = system: MOLT-4 leukemia
SNB-75 CNS = system: SNB-75 CNS
ACHN renal = system: ACHN renal
HOP-92 NSCLC = system: HOP-92 NSCLC
XF 498 CNS = system: XF 498 CNS
CCRF-CEM leukemia = system: CCRF-CEM leukemia
SK-MEL-5 melanoma = system: SK-MEL-5 melanoma
SN12C renal = system: SN12C renal
HOP-62 NSCLC = system: HOP-62 NSCLC
DMS 273 small cell lung = system: DMS 273 small cell lung
EKVX NSCLC = system: EKVX NSCLC
HCT-15 colon = system: HCT-15 colon
SK-MEL-2 melanoma = system: SK-MEL-2 melanoma
M19-MEL melanoma = system: M19-MEL melanoma
CAKI-1 renal = system: CAKI-1 renal
A549 NSCLC = system: A549 NSCLC
SF-268 CNS = system: SF-268 CNS
NCI-H460 lung = system: NCI-H460 lung
COLO 205 colon = system: COLO 205 colon
RPMI-8226 leukemia = system: RPMI-8226 leukemia
UACC-257 melanoma = system: UACC-257 melanoma
DMS 114 small cell lung = system: DMS 114 small cell lung
SNB-19 CNS = system: SNB-19 CNS
KM12 colon = system: KM12 colon
LOX IMVI melanoma = system: LOX IMVI melanoma
SNB-78 CNS = system: SNB-78 CNS
HT29 colon = system: HT29 colon
SR leukemia = system: SR leukemia
NCI-H226 lung = system: NCI-H226 lung
HCT-116 colon = system: HCT-116 colon
U251 CNS = system: U251 CNS
SF-539 CNS = system: SF-539 CNS
A498 renal = system: A498 renal

SMILES: O=C1N[C@H](Cc2cnc[nH]2)C(=O)N2CCC[C@@H]12
- TGI (UACC-62 melanoma): > 100 µM
- TGI (HL-60(TB) leukemia): > 100 µM
- TGI (SK-MEL-28 melanoma): > 100 µM
- TGI (TK-10 renal): > 100 µM
- TGI (DLD-1 colon): > 100 µM
- TGI (MALME-3M melanoma): > 100 µM
- TGI (M14 melanoma): > 100 µM
- TGI (OVCAR-5 ovarian): > 100 µM
- TGI (SF-295 CNS): > 100 µM
- TGI (SW-620 colon): > 100 µM
- TGI (OVCAR-8 ovarian): > 100 µM
- TGI (K-562 leukemia): > 100 µM
- TGI (NCI-H522 lung): > 100 µM
- TGI (OVCAR-3 ovarian): > 100 µM
- TGI (OVCAR-4 ovarian): > 100 µM
- TGI (HCC-2998 colon): > 100 µM
- TGI (SK-OV-3 ovarian): > 100 µM
- TGI (LXFL 529 NSCLC): > 100 µM
- TGI (IGROV1 ovarian): > 100 µM
- TGI (NCI-H23 lung): > 100 µM
- TGI (RXF 393 renal): > 100 µM
- TGI (KM20L2 colon): > 100 µM
- TGI (UO-31 renal): > 100 µM
- TGI (786-0 renal): > 100 µM
- TGI (MOLT-4 leukemia): > 100 µM
- TGI (SNB-75 CNS): > 100 µM
- TGI (ACHN renal): > 100 µM
- TGI (HOP-92 NSCLC): > 100 µM
- TGI (XF 498 CNS): > 100 µM
- TGI (CCRF-CEM leukemia): > 100 µM
- TGI (SK-MEL-5 melanoma): > 100 µM
- TGI (SN12C renal): > 100 µM
- TGI (HOP-62 NSCLC): > 100 µM
- TGI (DMS 273 small cell lung): > 100 µM
- TGI (EKVX NSCLC): > 100 µM
- TGI (HCT-15 colon): > 100 µM
- TGI (SK-MEL-2 melanoma): > 100 µM
- TGI (M19-MEL melanoma): > 100 µM
- TGI (CAKI-1 renal): > 100 µM
- TGI (A549 NSCLC): > 100 µM
- TGI (SF-268 CNS): > 100 µM
- TGI (NCI-H460 lung): > 100 µM
- TGI (COLO 205 colon): > 100 µM
- TGI (RPMI-8226 leukemia): > 100 µM
- TGI (UACC-257 melanoma): > 100 µM
- TGI (DMS 114 small cell lung): > 100 µM
- TGI (SNB-19 CNS): > 100 µM
- TGI (KM12 colon): > 100 µM
- TGI (LOX IMVI melanoma): > 100 µM
- TGI (SNB-78 CNS): > 100 µM

SMILES: O=C(Nc1ccc(F)cc1)C(=O)C(C(=O)c1ccccc1F)C1OC(=O)c2ccccc21 (stereo not drawn)
- TGI (UACC-62 melanoma): > 100 µM
- TGI (HL-60(TB) leukemia): > 100 µM
- TGI (SK-MEL-28 melanoma): > 100 µM
- TGI (TK-10 renal): > 100 µM
- TGI (HT29 colon): > 100 µM
- TGI (DLD-1 colon): > 100 µM
- TGI (M14 melanoma): > 100 µM
- TGI (OVCAR-5 ovarian): > 100 µM
- TGI (SF-295 CNS): > 100 µM
- TGI (SR leukemia): 59.6 µM
- TGI (SW-620 colon): > 100 µM
- TGI (OVCAR-8 ovarian): > 100 µM
- TGI (K-562 leukemia): > 100 µM
- TGI (NCI-H226 lung): 63.5 µM
- TGI (NCI-H522 lung): 71.8 µM
- TGI (OVCAR-4 ovarian): > 100 µM
- TGI (HCC-2998 colon): > 100 µM
- TGI (SK-OV-3 ovarian): > 100 µM
- TGI (LXFL 529 NSCLC): > 100 µM
- TGI (IGROV1 ovarian): > 100 µM
- TGI (NCI-H23 lung): > 100 µM
- TGI (RXF 393 renal): > 100 µM
- TGI (KM20L2 colon): > 100 µM
- TGI (UO-31 renal): > 100 µM
- TGI (MOLT-4 leukemia): > 100 µM
- TGI (SNB-75 CNS): > 100 µM
- TGI (HCT-116 colon): > 100 µM
- TGI (ACHN renal): > 100 µM
- TGI (HOP-92 NSCLC): > 100 µM
- TGI (XF 498 CNS): > 100 µM
- TGI (U251 CNS): 66.1 µM
- TGI (CCRF-CEM leukemia): 90.8 µM
- TGI (SK-MEL-5 melanoma): > 100 µM
- TGI (SN12C renal): > 100 µM
- TGI (HOP-62 NSCLC): > 100 µM
- TGI (DMS 273 small cell lung): > 100 µM
- TGI (EKVX NSCLC): > 100 µM
- TGI (HCT-15 colon): > 100 µM
- TGI (SK-MEL-2 melanoma): > 100 µM
- TGI (CAKI-1 renal): > 100 µM
- TGI (A549 NSCLC): > 100 µM
- TGI (SF-268 CNS): > 100 µM
- TGI (NCI-H460 lung): > 100 µM
- TGI (SF-539 CNS): 89.9 µM
- TGI (A498 renal): > 100 µM
- TGI (COLO 205 colon): > 100 µM
- TGI (RPMI-8226 leukemia): > 100 µM
- TGI (UACC-257 melanoma): > 100 µM
- TGI (DMS 114 small cell lung): > 100 µM
- TGI (SNB-19 CNS): > 100 µM
- TGI (KM12 colon): > 100 µM
- TGI (LOX IMVI melanoma): > 100 µM
- TGI (SNB-78 CNS): > 100 µM
